Reference: US20150210641A1, “NOVEL CYTOCHROME P450 INHIBITORS AND THEIR METHOD OF USE” (CORTENDO AB (PUBL), priority 2014, published 2015)

Experiments:
Format in all cases: cell-based
recombinant CYP-17 = biological target: T1, recombinant CYP-17 (Homo sapiens, UniProt P05093); assay: Cyp17 assay: 3H-acetic acid release from [21-3H] 17α-hydroxyl-Pregnenolone in AD293 cells; conditions: AD293 cells stably over-expressing recombinant CYP-17; eight concentrations 10 μM to 4.5 nM
T1 construct: expressed in transfected cells
T1 sequence (P05093 1-508): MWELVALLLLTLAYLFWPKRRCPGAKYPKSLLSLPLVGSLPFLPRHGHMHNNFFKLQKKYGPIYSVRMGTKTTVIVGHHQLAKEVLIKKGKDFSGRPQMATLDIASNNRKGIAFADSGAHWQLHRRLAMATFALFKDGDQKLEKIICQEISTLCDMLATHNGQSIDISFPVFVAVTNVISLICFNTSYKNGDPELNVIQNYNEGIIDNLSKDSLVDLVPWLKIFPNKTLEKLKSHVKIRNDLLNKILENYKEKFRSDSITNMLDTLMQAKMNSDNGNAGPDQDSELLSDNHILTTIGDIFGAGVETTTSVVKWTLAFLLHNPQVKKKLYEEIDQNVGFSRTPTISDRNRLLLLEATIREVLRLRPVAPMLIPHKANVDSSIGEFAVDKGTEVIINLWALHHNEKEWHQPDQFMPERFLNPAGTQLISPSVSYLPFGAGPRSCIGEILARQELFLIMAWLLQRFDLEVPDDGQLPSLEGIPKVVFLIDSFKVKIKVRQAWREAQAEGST
Method: Cyp17 assay protocol: AD293 cells that stably over-express recombinant CYP-17 were seeded in 96 well plates coated with poly D-lysine (15,000 cell per well) and incubated at 37° C. for 24 hours in Dulbecco's Modified Eagle Medium (DMEM) with Fetal Bovine Serum (FBS) that is stripped of hormones by charcoal treatment. The media is then removed, the cells are washed once with Phosphate buffer saline solution, and 50 μL Dulbecco's Modified Eagle Medium (DMEM) with Fetal Bovine Serum (FBS) that is stripped of hormones by charcoal treatment is added. Compounds of the disclosure are then added to the wells in eight concentration spanning 10 μM to 4.5 nM, and the plates are incubated for an additional 60 minutes at 37° C. [21-^3H] 17α-hydroxyl-Pregnenolone is then added (50 nCi per well, 31.25 nM) and the plates are incubated for an additional 4 hours at 37° C. The media is then collected, 200 μL of chloroform is added, and the mixture is shaken for 1 hour. The aqueous layer is then separated and analyzed for the presence of ^3H-acetic acid using a Perkin Elmer Topcount NXT to determine IC50s of the compounds of the disclosure.

recombinant CYP-21 = biological target: T2, recombinant CYP-21 (Homo sapiens, UniProt P08686); assay: Cyp21 assay: 11-deoxycortisol formation from 17-OH Progesterone in AD293 cells, LC/MS; conditions: AD293 cells stably over-expressing recombinant CYP-21; eight concentrations 10 μM to 4.5 nM
T2 construct: expressed in transfected cells
T2 sequence (P08686 1-495): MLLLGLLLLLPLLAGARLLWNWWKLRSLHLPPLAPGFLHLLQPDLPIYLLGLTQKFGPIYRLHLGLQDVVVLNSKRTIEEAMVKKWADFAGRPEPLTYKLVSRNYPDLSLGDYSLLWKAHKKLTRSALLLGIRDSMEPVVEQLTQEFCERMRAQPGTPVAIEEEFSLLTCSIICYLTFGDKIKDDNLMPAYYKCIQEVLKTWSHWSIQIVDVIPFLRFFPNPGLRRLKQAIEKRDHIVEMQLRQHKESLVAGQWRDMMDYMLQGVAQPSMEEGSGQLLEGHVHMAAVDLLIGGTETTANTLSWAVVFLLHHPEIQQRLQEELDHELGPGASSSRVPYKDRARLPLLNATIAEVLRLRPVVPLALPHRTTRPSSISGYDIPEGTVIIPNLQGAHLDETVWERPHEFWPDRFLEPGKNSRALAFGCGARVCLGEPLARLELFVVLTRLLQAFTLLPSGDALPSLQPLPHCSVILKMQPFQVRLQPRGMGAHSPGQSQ
Method: Cyp21 assay protocol: AD293 cells that stably over-express recombinant CYP-21 were seeded in 96 well plates coated with poly D-lysine (10,000 cell per well) and incubated at 37° C. for 24 hours in Dulbecco's Modified Eagle Medium (DMEM) with Fetal Bovine Serum (FBS) that is stripped of hormones by charcoal treatment. The media is then removed, the cells are washed once with Phosphate buffer saline solution, and 50 μL Dulbecco's Modified Eagle Medium (DMEM) with Fetal Bovine Serum (FBS) that is stripped of hormones by charcoal treatment is added. Compounds of the disclosure are then added to the wells in eight concentration spanning 10 μM to 4.5 nM, and the plates are incubated for an additional 60 minutes at 37° C. 17-OH Progesterone is then added ([…]) and the plates are incubated for an additional 45 minutes at 37° C. After incubation, 50 uL of the supernatant (medium) is transferred into a fresh plate and 150 uL of an acetonitrile solution containing 200 ng/ml of Telmisartan is added. The sample is mixed and then placed in a centrifuge at 2000 rpm for 5 minutes.

recombinant CYP-11 = biological target: T3, recombinant CYP-11 (Homo sapiens, UniProt P15538); assay: Cyp11 assay: cortisol formation from 11-deoxycortisol in AD293 cells, LC/MS; conditions: AD293 cells stably over-expressing recombinant CYP-11; eight concentrations 10 μM to 4.5 nM
T3 construct: expressed in transfected cells
T3 sequence (P15538 25-503): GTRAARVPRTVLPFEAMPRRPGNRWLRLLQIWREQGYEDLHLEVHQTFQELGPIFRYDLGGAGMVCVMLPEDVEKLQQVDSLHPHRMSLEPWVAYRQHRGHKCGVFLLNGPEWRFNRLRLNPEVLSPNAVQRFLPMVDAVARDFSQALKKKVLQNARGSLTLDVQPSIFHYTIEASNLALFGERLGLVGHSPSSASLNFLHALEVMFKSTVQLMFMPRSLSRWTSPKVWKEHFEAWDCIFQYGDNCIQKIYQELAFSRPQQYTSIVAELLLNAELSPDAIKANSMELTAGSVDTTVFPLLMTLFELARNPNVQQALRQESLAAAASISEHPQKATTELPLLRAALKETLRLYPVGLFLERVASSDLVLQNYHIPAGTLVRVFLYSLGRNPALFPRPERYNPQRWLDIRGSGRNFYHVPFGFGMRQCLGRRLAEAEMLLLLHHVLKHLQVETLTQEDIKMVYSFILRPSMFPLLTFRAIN
Method: Cyp11 assay protocol: AD293 cells that stably over-express recombinant CYP-11 were seeded in 96 well plates coated with poly D-lysine (15,000 cell per well) and incubated at 37° C. for 24 hours in Dulbecco's Modified Eagle Medium (DMEM) with Fetal Bovine Serum (FBS) that is stripped of hormones by charcoal treatment. The media is then removed, the cells are washed once with Phosphate buffer saline solution, and 50 μL Dulbecco's Modified Eagle Medium (DMEM) with Fetal Bovine Serum (FBS) that is stripped of hormones by charcoal treatment is added. Compounds of the disclosure are then added to the wells in eight concentration spanning 10 μM to 4.5 nM, and the plates are incubated for an additional 60 minutes at 37° C. 11-deoxycortisol is then added ([…]) and the plates are incubated for an additional 12 hours at 37° C. After incubation, 50 uL of the supernatant (medium) is transferred into a fresh plate and 150 uL of an acetonitrile solution containing 200 ng/ml of Telmisartan is added. The sample is mixed and then placed in a centrifuge at 2000 rpm for 5 minutes. 100 uL of the supernatant is transferred into a fresh 96 well deep well plate, 100 uL of 1:1 methanol: water was added, the solution was mixed and then analyzed by LC/MS for the presence of cortisol using an Agilent 1200 RRLC/ABSCIEX API4000 LC-MS or Shimadzu Prominance/ABSCIEX API4000 LC-MS to determine IC50s of the compounds of the disclosure.

| SMILES | IC50 (recombinant CYP-17) | IC50 (recombinant CYP-21) | IC50 (recombinant CYP-11) |
| --- | --- | --- | --- |
| COc1ccc(-c2ccc(C(c3ccncc3)N3CCN(C)CC3)cc2)cc1OC (stereo not drawn) [Entry 12, 1-((3′4′-dimethoxy-[1,1′-biphenyl]-4-yl)(pyridin-4-yl)methyl)-4-methylpiperazine] | 77 nM | ≥ 10000 nM | – |
| COc1ccc(-c2ccc(C(F)c3ccncc3)cc2)cc1OC (stereo not drawn) [Entry 7] | 14 nM | 940 nM | ≥ 10 µM |
| COc1ccc(-c2ccc(C(c3ccncc3)N3CCCCC3)cc2)cc1OC (stereo not drawn) [Entry 9] | 14 nM | 1200 nM | – |
| COc1ccc(-c2ccc(C(OC(C)C)c3ccncc3)cc2)cc1OC (stereo not drawn) [Entry 13, 4-(isopropoxy(3′,4′-dimethoxy-[1,1′-biphenyl]-4-yl)methyl)pyridine] | 10 nM | 210 nM | – |
| COc1cc(F)ccc1-c1ccc(C2(c3ccncc3)OCCO2)cc1 [Entry 3, 4-[2-(4′-Fluoro-2′-methoxy-biphenyl-4-yl)-[1,3]dioxolan-2-yl]-pyridine] | – | 820 nM | 2 µM |
| COc1ccc(-c2ccc(C(c3ccncc3)N3CCOCC3)cc2)cc1OC (stereo not drawn) [Entry 10, 4-((3′,4′-Dimethoxy-[1,1′-biphenyl]-4-yl)(pyridin-4-yl)methyl)morpholine] | 10 nM | 1800 nM | – |
| COc1cc(F)ccc1-c1ccc(C2(c3ccncc3)OCC(C)CO2)cc1 (stereo not drawn) [Entry 5, 4-[2-(4′-Fluoro-2′-methoxy-biphenyl-4-yl)-5-methyl-[1,3]dioxan-2-yl]-pyridine] | 126 nM | 520 nM | ≥ 10 µM |
| COc1cc(F)ccc1-c1ccc(C(F)c2ccncc2)cc1 (stereo not drawn) [Entry 1, 4-[Fluoro-(4′-fluoro-2′-methoxy-biphenyl-4-yl)-methyl]-pyridine] | 220 nM | 1500 nM | ≥ 10 µM |
| COc1cc(F)ccc1-c1ccc(C2(c3ccncc3)OCCO2)cc1 [Entry 4, 4-[2-(4′-Fluoro-2′-methoxy-biphenyl-4-yl)-[1,3]dioxolan-2-yl]-pyridine] | – | 320 nM | ≥ 10 µM |
| COc1ccc(-c2ccc(C(c3ccncc3)N3CCCC3)cc2)cc1OC (stereo not drawn) [Entry 11, 4-((3′4′-dimethoxy-[1,1′-biphenyl]-4-yl)(pyrrolidin-1-yl)methyl)pyridine] | 10 nM | 2500 nM | – |

Results, then the compound that gave them:

| IC50 (recombinant CYP-17) | IC50 (recombinant CYP-21) | IC50 (recombinant CYP-11) | SMILES |
| --- | --- | --- | --- |
| 26 nM | 190 nM | – | CCOC(c1ccncc1)c1ccc(-c2ccc(OC)c(OC)c2)cc1 (stereo not drawn) [Entry 14, 4-(ethoxy(3′,4′-dimethoxy-[1,1′-biphenyl]-4-yl)methyl)pyridine] |
| 1000 nM | ≥ 10000 nM | ≥ 10 µM | COc1cc(F)ccc1-c1ccc(C(c2ccncc2)N2CCNCC2)cc1 (stereo not drawn) [Entry 30, 1-((4′-fluoro-2′-methoxy-[1,1′-biphenyl]-4-yl)(pyridin-4-yl)methyl)piperazine] |
| 254 nM | ≥ 10000 nM | ≥ 10 µM | COc1cc(F)ccc1-c1ccc(C(c2ccncc2)N2CCCC2)cc1 (stereo not drawn) [Entry 19, 4-((4′-fluoro-2′-methoxy-[1,1′-biphenyl]-4-yl)(pyrrolidin-1-yl)methyl)pyridine] |
| 180 nM | ≥ 10000 nM | ≥ 10 µM | COc1cc(F)ccc1-c1ccc(C(c2ccncc2)N2CCN(c3ccccc3)CC2)cc1 (stereo not drawn) [Entry 22, 1-((4′-fluoro-2′-methoxy-[1,1′-biphenyl]-4-yl)(pyridin-4-yl)methyl)-4-phenylpiperazine] |
| 23 nM | 565 nM | 1.4 µM | COc1ccc(-c2ccc(C3(c4ccncc4)OCCO3)cc2)cc1OC [Entry 16, 4-[2-(3′,4′-dimethoxy-biphenyl-4-yl)-[1,3]dioxolan-2-yl]-pyridine] |
| 31 nM | 4000 nM | 4.2 µM | COc1cc(F)ccc1-c1ccc(C(NCCNC(=O)OC(C)(C)C)c2ccncc2)cc1 (stereo not drawn) [Entry 25, tert-butyl(2-(((4′-fluoro-2′-methoxy-[1,1′-biphenyl]-4-yl)(pyridin-4-yl)methyl)amino)ethyl)carbamate] |
| 770 nM | ≥ 10000 nM | ≥ 10 µM | COc1cc(F)ccc1-c1ccc(C(c2ccncc2)N2CCCCC2)cc1 (stereo not drawn) [Entry 18, 4-((4′-fluoro-2′-methoxy-[1,1′-biphenyl]-4-yl)(piperidin-1-yl)methyl)pyridine] |
| 28 nM | ≥ 10000 nM | ≥ 10 µM | COc1cc(F)ccc1-c1ccc(C(c2ccncc2)N2CCOCC2)cc1 (stereo not drawn) [Entry 17, 4-((4′-fluoro-2′-methoxy-[1,1′-biphenyl]-4-yl)(pyridin-4-yl)methyl)morpholine] |
| 192 nM | ≥ 10000 nM | ≥ 10 µM | COc1cc(F)ccc1-c1ccc(C(c2ccncc2)N2CCN(c3ccccc3C#N)CC2)cc1 (stereo not drawn) [Entry 24, 2-(4-((4′-fluoro-2′-methoxy-[1,1′-biphenyl]-4-yl)(pyridin-4-yl)methyl)piperazin-1-yl)benzonitrile] |
| 11 nM | 180 nM | – | COc1ccc(-c2ccc(C(OC)c3ccncc3)cc2)cc1OC (stereo not drawn) [Entry 15, 4-(methoxy(3′,4′-dimethoxy-[1,1′-biphenyl]-4-yl)methyl)pyridine] |
